Data as given in patent publication US20070128217A1 (priority 2003, published 2007).

Columns and labels:
[1] = tested on: recombinant human anti-SARS-CoV antibody 03-018; format: binding; parameters: Binding of antibody 03-018 to linear peptides of the N protein of SARS-CoV Urbani / Binding of antibody 03-018 to looped/cyclic peptides of the N protein of SARS-CoV Urbani: unit not given here
[2] = tested on: control sera (pooled serum of ten healthy LUMC hospital workers; commercial negative donor pooled serum from the Dutch bloodbank); format: binding, human; parameters: Binding of Control serum LUMC to linear peptides / Binding of Control serum Blood-bank to linear peptides / Binding of Control serum LUMC to looped peptides / Binding of Control Serum Blood-Bank to Looped peptides / Binding of Control serum LUMC to linear peptides of the protein M of SARS-CoV Urbani / Binding of Control serum Blood-bank to linear peptides of the protein M of SARS-CoV Urbani / Binding of Control serum LUMC to looped peptides of the protein M of SARS-CoV Urbani / Binding of Control Serum Blood-Bank to Looped peptides of the protein M of SARS-CoV Urbani: unit not given here
[3] = tested on: antibodies in sera from SARS patients (sera 1a, 1b, 2, 6, 37, 62, London, SARS-yellow, SARS-green); format: binding, human; parameters: Binding of serum 6 to linear peptides of protein X1 of SARS-CoV Urbani / Binding of serum 37 to linear peptides of protein X1 of SARS-CoV Urbani / Binding of serum 6 to looped/cyclic peptide (PEPSCAN-ELISA) / Binding of serum 37 to looped/cyclic peptide (PEPSCAN-ELISA) / Binding of serum 37 to looped/cyclic peptides of protein X1 of SARS-CoV Urbani / Binding of serum 6 to linear peptides of protein X2 / Binding of serum 37 to linear peptides of protein X2 / Binding of serum 37 to looped/cyclic peptides of protein X2 of SARS-CoV Urbani / Binding of serum 6 to linear peptides of protein M of SARS-CoV Urbani / Binding of serum 37 to linear peptides of protein M of SARS-CoV Urbani / Binding of serum 6 to looped/cyclic peptides of protein M of SARS-CoV Urbani / Binding of serum 37 to looped/cyclic peptides of protein M of SARS-CoV Urbani / Binding of serum 6 to linear peptides of protein X3 of SARS-CoV Urbani / Binding of serum 37 to linear peptides of protein X3 of SARS-CoV Urbani / Binding of serum 37 to looped/cyclic peptides of protein X3 of SARS-CoV Urbani / Binding of serum 6 to linear peptides of protein X4 of SARS-CoV Urbani / Binding of serum 37 to linear peptides of protein X4 of SARS-CoV Urbani / Binding of serum 37 to looped/cyclic peptides of protein X4 of SARS-CoV Urbani / Binding of serum 6 to linear peptides of protein X5 of SARS-CoV Urbani / Binding of serum 37 to linear peptides of protein X5 of SARS-CoV Urbani / Binding of serum 37 to looped/cyclic peptides of protein X5 of SARS-CoV Urbani / Binding of serum 6 to linear peptides of protein N of SARS-CoV Urbani / Binding of serum 37 to linear peptides of protein N of SARS-CoV Urbani / Binding of serum 6 to linear peptide (PEPSCAN-ELISA) / Binding of serum 1a to looped/cyclic peptides of protein N of SARS-CoV Urbani / Binding of serum 1b to looped/cyclic peptides of protein N of SARS-CoV Urbani / Binding of serum 2 to looped/cyclic peptides of protein N of SARS-CoV Urbani / Binding of serum 6 to looped/cyclic peptides of protein N of SARS-CoV Urbani / Binding of serum 37 to looped/cyclic peptides of protein N of SARS-CoV Urbani / Binding of serum 62 to looped/cyclic peptides of protein N of SARS-CoV Urbani / Binding of serum London to looped/cyclic peptides of protein N of SARS-CoV Urbani / Binding of serum SARS-green to looped/cyclic peptides of protein N of SARS-CoV Urbani: unit not given here
[4] = tested on: rabbit serum obtained by immunizing a rabbit with the SARS-CoV strain Frankfurt 1; format: binding; parameters: Binding of a rabbit serum to linear peptides / Binding of a rabbit serum to looped peptides / Rabbit serum linear peptides / Rabbit serum looped peptides / Binding of a rabbit serum to linear peptides of protein N of SARS-CoV Urbani (Rabbit serum linear peptides) / Binding of a rabbit serum to looped/cyclic peptides of protein N of SARS-CoV Urbani (Rabbit serum looped peptides): unit not given here

Row | Sequence | Binding of antibody 03-018 to linear peptides of the N protein of SARS-CoV Urbani [1] | Binding of antibody 03-018 to looped/cyclic peptides of the N protein of SARS-CoV Urbani [1] | Binding of serum 1a to linear peptides of protein N of SARS-CoV Urbani [3] | Binding of serum 1a to looped/cyclic peptides of protein N of SARS-CoV Urbani [3] | Binding of serum 1b to linear peptides of protein N of SARS-CoV Urbani [3] | Binding of serum 1b to looped/cyclic peptides of protein N of SARS-CoV Urbani [3] | Binding of serum 2 to linear peptides of protein N of SARS-CoV Urbani [3] | Binding of serum 2 to looped/cyclic peptides of protein N of SARS-CoV Urbani [3] | Binding of serum 6 to linear peptides of protein N of SARS-CoV Urbani [3] | Binding of serum 6 to looped/cyclic peptides of protein N of SARS-CoV Urbani [3] | Binding of serum 37 to linear peptides of protein N of SARS-CoV Urbani [3] | Binding of serum 37 to looped/cyclic peptides of protein N of SARS-CoV Urbani [3] | Binding of serum 62 to linear peptides of protein N of SARS-CoV Urbani [3] | Binding of serum 62 to looped/cyclic peptides of protein N of SARS-CoV Urbani [3] | Binding of serum London to linear peptides of protein N of SARS-CoV Urbani [3] | Binding of serum London to looped/cyclic peptides of protein N of SARS-CoV Urbani [3] | Binding of serum SARS-green to looped/cyclic peptides of protein N of SARS-CoV Urbani [3] | Binding of serum SARS-yellow to looped/cyclic peptides of protein N of SARS-CoV Urbani [3] | Binding of a rabbit serum to linear peptides of protein N of SARS-CoV Urbani (Rabbit serum linear peptides) [4] | Binding of a rabbit serum to looped/cyclic peptides of protein N of SARS-CoV Urbani (Rabbit serum looped peptides) [4] | also measured
1 | SAFFGMSRIGMEVTP | 0.1 | 0.2 | 0.3 | 0.4 | 0.2 | 0.3 | 0.2 | 0.4 | 0.2 | 0.2 | 0.7 | 0.5 | 0.8 | 0.4 | 0.6 | 0.4 | 0.4 | 0.5 | 0.2 | 0.5 | Control Serum Blood-Bank Looped peptides [2]: 0.6; Control serum Blood-bank linear peptides [2]: 0.8; Control serum LUMC linear peptides [2]: 0.7; Control serum LUMC looped peptides [2]: 0.5; Binding of serum SARS-green to linear peptides of protein N of SARS-CoV Urbani [3]: 0.3; Binding of serum SARS-yellow to linear peptides of protein N of SARS-CoV Urbani [3]: 0.7
2 | SAPRITFGGPTDSTD | – | – | 0.2 | 0.3 | 0.2 | 0.2 | 0.1 | 0.2 | 0.1 | 0.1 | 0.7 | 0.5 | 0.6 | 0.3 | 0.5 | 0.3 | 0.9 | 0.4 | 0.2 | 0.5 | Recognition of the peptide by antibody 03-018 [1]: recognized; Binding of Control Serum Blood-Bank to Looped peptides [2]: 0.5; Binding of Control serum Blood-bank to linear peptides [2]: 0.4; Binding of Control serum LUMC to linear peptides [2]: 0.5; Binding of Control serum LUMC to looped peptides [2]: 0.4; Binding of serum SARS-green to linear peptides of protein N of SARS-CoV Urbani [3]: 0.6; Binding of serum SARS-yellow to linear peptides of protein N of SARS-CoV Urbani [3]: 0.4
3 | SASAFFGMSRIGMEV | 0.1 | 0.2 | 0.3 | 0.5 | 0.2 | 0.3 | 0.2 | 0.6 | 0.2 | 0.5 | 0.7 | 0.8 | 0.6 | 0.6 | 0.5 | 1.6 | 0.4 | 0.9 | 0.1 | 0.6 | Control Serum Blood-Bank Looped peptides [2]: 0.7; Control serum Blood-bank linear peptides [2]: 0.7; Control serum LUMC linear peptides [2]: 0.6; Control serum LUMC looped peptides [2]: 0.7; Binding of serum SARS-green to linear peptides of protein N of SARS-CoV Urbani [3]: 0.4; Binding of serum SARS-yellow to linear peptides of protein N of SARS-CoV Urbani [3]: 0.7
4 | SKKPRQKRTATKQYN | 0.1 | 0.2 | – | 0.3 | – | 0.1 | – | 0.4 | – | 0.3 | – | 0.6 | – | 0.6 | – | 0.5 | 0.1 | 0.3 | 0.2 | 0.1 | Binding of Control Serum Blood-Bank to Looped peptides [2]: 0.6; Binding of Control serum Blood-bank to linear peptides [2]: 0.8; Binding of Control serum LUMC to linear peptides [2]: 0.7; Binding of Control serum LUMC to looped peptides [2]: 0.5; Binding of serum 1a to linear peptide (PEPSCAN-ELISA) [3]: 0.2; Binding of serum 1b to linear peptide (PEPSCAN-ELISA) [3]: 0.1; Binding of serum 2 to linear peptide (PEPSCAN-ELISA) [3]: 0.3; Binding of serum 6 to linear peptide (PEPSCAN-ELISA) [3]: 0.2; Binding of serum 37 to linear peptide (PEPSCAN-ELISA) [3]: 0.6; Binding of serum 62 to linear peptide (PEPSCAN-ELISA) [3]: 0.7; Binding of serum London to linear peptide (PEPSCAN-ELISA) [3]: 0.5; Binding of serum SARS-green to linear peptide (PEPSCAN-ELISA) [3]: 0.1; Binding of serum SARS-yellow to linear peptide (PEPSCAN-ELISA) [3]: 0.4
